Structures are written as SMILES.

The assay has as its target T1, Alpha-1B adrenergic receptor (Homo sapiens) (UniProt P35368).
T1 sequence (whole entry): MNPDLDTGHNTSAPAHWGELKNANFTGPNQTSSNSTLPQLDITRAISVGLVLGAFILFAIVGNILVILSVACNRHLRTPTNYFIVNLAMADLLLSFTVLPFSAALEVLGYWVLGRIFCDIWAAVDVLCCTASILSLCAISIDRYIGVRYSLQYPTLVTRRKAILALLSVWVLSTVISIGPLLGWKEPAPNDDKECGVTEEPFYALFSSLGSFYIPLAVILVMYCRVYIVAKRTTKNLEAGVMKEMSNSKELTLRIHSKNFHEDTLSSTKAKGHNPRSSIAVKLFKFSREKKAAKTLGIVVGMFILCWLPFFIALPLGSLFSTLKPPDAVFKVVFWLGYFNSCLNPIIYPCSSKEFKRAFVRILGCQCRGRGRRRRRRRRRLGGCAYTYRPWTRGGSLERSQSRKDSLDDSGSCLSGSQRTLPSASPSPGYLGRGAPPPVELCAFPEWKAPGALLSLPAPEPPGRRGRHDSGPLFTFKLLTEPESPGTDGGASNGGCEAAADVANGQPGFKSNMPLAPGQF
Put plainly: ALPHA1B/R Eurofins-Panlabs selectivity data (BI). The conditions noted are these: Rattus norvegicus; Compound concentration 10.0 uM.

As to `CCC(=O)N[C@H]1CC[C@@H](C(=O)N(C)c2ccc(-c3nc4ccccc4o3)cc2)C1` [BI 99179], the residual activity was 96%.

Usually residual activity stands for what remains of the control signal, in per cent.
